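Where inhibition never reached the appropriate level, the endpoint shown equals the highest concentration tested. Otherwise, values were interpolated linearly from a five-concentration, 48-hour dose response in 96-well plates. TGI: concentration producing complete growth inhibition.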
Legend:
Assay in all cases: DTP human tumour cell line panel, 48 h
[1] = tested on: U251 CNS
[2] = tested on: SN12C renal
[3] = tested on: UO-31 renal
[4] = tested on: SR leukemia
[5] = tested on: UACC-257 melanoma
[6] = tested on: OVCAR-5 ovarian
[7] = tested on: CCRF-CEM leukemia
[8] = tested on: M14 melanoma
[9] = tested on: SK-MEL-5 melanoma
[10] = tested on: MCF7 breast
[11] = tested on: HT29 colon
[12] = tested on: SK-OV-3 ovarian
[13] = tested on: UACC-62 melanoma
[14] = tested on: 786-0 renal
[15] = tested on: BT-549 breast
[16] = tested on: NCI-H460 lung
[17] = tested on: SK-MEL-28 melanoma
[18] = tested on: IGROV1 ovarian
[19] = tested on: LOX IMVI melanoma

| Compound | TGI [1] [µM] | TGI [2] [µM] | TGI [3] [µM] | TGI [4] [µM] | TGI [5] [µM] | TGI [6] [µM] | TGI [7] [µM] | TGI [8] [µM] | TGI [9] [µM] | TGI [10] [µM] | TGI [11] [µM] | TGI [12] [µM] | TGI [13] [µM] | TGI [14] [µM] | TGI [15] [µM] | TGI [16] [µM] | TGI [17] [µM] | TGI [18] [µM] | TGI [19] [µM] |
| --- | --- | --- | --- | --- | --- | --- | --- | --- | --- | --- | --- | --- | --- | --- | --- | --- | --- | --- | --- |
| C1=NCCNCCNCCN=Cc2ccccc2OCc2cccc(n2)COc2ccccc21 | 66.3 | > 100 | > 100 | 88.9 | > 100 | > 100 | 55.1 | > 100 | > 100 | > 100 | 51.6 | > 100 | > 100 | > 100 | > 100 | > 100 | > 100 | > 100 |  |
| C=CCNS(=O)(=O)c1ncnc2nc[nH]c12 | > 100 | > 100 | > 100 | > 100 | > 100 | > 100 | > 100 | > 100 | > 100 | > 100 | > 100 | > 100 | > 100 | > 100 | > 100 |  | > 100 | > 100 | > 100 |
| C[C@]12CC[C@H](O)CC1=CC[C@@H]1[C@@H]2CC[C@]2(C)C(=N/O)/C(=C/c3ccc([N+](=O)[O-])cc3)C[C@@H]12 |  | 7.14 | 24.7 | 22.5 | 16.5 | 21.5 | > 100 | 21.1 | 3.32 | 18.2 | 23.5 | 22.5 | 28.6 | 7.67 | 26.3 | 18.5 | 22.8 | 26.7 | 21.5 |
| O=C1C(Cl)C(c2cc3cc(Br)ccc3nc2Cl)N1c1ccc(Cl)cc1 (stereo not given) |  | 8.8 | 3.28 | 7.46 | 12.6 | > 25 | 11.4 | 20.9 | 6.38 | 7.47 | 19.6 | > 25 | 10.2 | 9.22 | 11.6 | 20.9 | > 25 | 7.17 | 3.38 |
| Cc1nc(C(N)=S)sc1C(=O)CC(=O)C(=O)Nc1nc2ccccc2[nH]1 | > 100 | > 100 | > 100 | > 100 | > 100 | > 100 |  | > 100 | > 100 | > 100 | > 100 | > 100 | > 100 | > 100 | > 100 | > 100 | > 100 | > 100 | > 100 |
| COC1O[C@H]2[C@H]3[C@@H]1[C@@H](OS(=O)(=O)c1ccc(C)cc1)C(=O)N3C[C@H]2O (stereo not given in full) | > 100 |  | > 100 | > 100 | > 100 | > 100 |  | > 100 | > 100 | > 100 | > 100 | > 100 | > 100 | > 100 | > 100 | > 100 | > 100 |  | > 100 |
| COc1ccc2c(ccc3c(COC(=O)NC(C)C)c(COC(=O)NC(C)C)n(C)c32)c1 | 28.5 |  | 28.9 | > 100 | 27.1 | 30.8 | > 100 | 22.1 | 28.4 | 93.5 | 26.5 | 32.5 | 18.4 | 20.8 | 29.4 | 2.04 |  | 26 | 19.6 |
| CC(=O)O[C@H]1CCC2[C@@H]3CCC4Cc5nc6c(nc5C[C@]4(C)C3CC[C@@]21C)CC1CC[C@@H]2C(CC[C@@]3(C)C2CC[C@@H]3C(C)CCCC(C)C)[C@@]1(C)C6 (stereo not given in full) | > 100 | > 100 | > 100 |  | > 100 | > 100 | > 100 | > 100 | > 100 | > 100 | > 100 | > 100 | > 100 | > 100 | > 100 | > 100 | > 100 | > 100 | > 100 |
| N#Cc1nc(C(CO)N(Cc2ccccc2)C(=O)O)oc1N (stereo not given) | > 100 | > 100 | > 100 | > 100 | > 100 | > 100 |  | > 100 | > 100 | > 100 | > 100 | > 100 | > 100 | > 100 | > 100 | > 100 | > 100 | > 100 | > 100 |
| Br/C(=N\Nc1nn[nH]n1)c1ccncc1 | > 100 | > 100 |  | > 100 | > 100 | > 100 | > 100 | > 100 | > 100 | > 100 | > 100 | > 100 | > 100 | > 100 | > 100 | > 100 | > 100 | > 100 | > 100 |
| Nc1ncnc2c1ncn2[C@H]1CC[C@@H](NO)C1 | > 100 | > 100 | > 100 | > 100 | > 100 | > 100 | > 100 | > 100 | > 100 | > 100 |  | > 100 | > 100 | > 100 | > 100 | > 100 | > 100 | > 100 | > 100 |
| CCOC(=O)C(NCc1cccc(C(F)(F)F)c1)(NC(=O)CC)C(F)(F)F (stereo not given) | > 100 | > 100 | > 100 | > 100 | > 100 | > 100 | > 100 | > 100 | > 100 | > 100 | > 100 | > 100 | > 100 | > 100 | > 100 |  | > 100 | > 100 | > 100 |
| C[Si](C)(OCCS(=O)(=O)O)OC(=C1S(=O)(=O)OCCOS1(=O)=O)c1cccc2ccccc12 | > 100 | > 100 | > 100 | > 100 | > 100 | > 100 | > 100 | > 100 | > 100 | > 100 | > 100 |  |  | > 100 | > 100 | > 100 | > 100 | > 100 | > 100 |
